{"source": "PubChem BioAssay AID2060483", "about": "(Molecular Pharmacology Branch, DTP, NCI, 2025)", "test_system": "K24384-001-R-PDC complex spheroids, viability", "assay": "Anticancer human tumor K24384-001-R-PDC patient-derived pancreatic adenocarcinoma cell line growth inhibition [GQUAD]", "conditions": "for IC50: curve of first compound; for viability, T/C: stronger effect = lower value", "method_in_brief": "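Viability of tumor cells grown as complex spheroids with endothelial and stromal cells, exposed to drug combinations. Top concentration at or near clinical Cmax (else 10 microM), diluted in half-log increments.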", "key": {"[1]": {"conditions": "second compound 0.0316 µM, first compound 0.0316 µM"}, "[2]": {"conditions": "second compound 0.0316 µM, first compound 0.1 µM"}, "[3]": {"conditions": "second compound 0.0316 µM, first compound 0.316 µM"}, "[4]": {"conditions": "second compound 0.0316 µM, first compound 1 µM"}, "[5]": {"conditions": "second compound 0.0316 µM, first compound 3.16 µM"}, "[6]": {"conditions": "second compound 0.0316 µM, first compound 10 µM"}, "[7]": {"conditions": "second compound 0.1 µM, first compound 0.0316 µM"}, "[8]": {"conditions": "second compound 0.1 µM, first compound 0.1 µM"}, "[9]": {"conditions": "second compound 0.1 µM, first compound 0.316 µM"}, "[10]": {"conditions": "second compound 0.1 µM, first compound 1 µM"}, "[11]": {"conditions": "second compound 0.1 µM, first compound 3.16 µM"}, "[12]": {"conditions": "second compound 0.1 µM, first compound 10 µM"}, "[13]": {"conditions": "second compound 0.316 µM, first compound 0.0316 µM"}, "[14]": {"conditions": "second compound 0.316 µM, first compound 0.1 µM"}, "[15]": {"conditions": "second compound 0.316 µM, first compound 0.316 µM"}, "[16]": {"conditions": "second compound 0.316 µM, first compound 1 µM"}, "[17]": {"conditions": "second compound 0.316 µM, first compound 3.16 µM"}, "[18]": {"conditions": "second compound 0.316 µM, first compound 10 µM"}, "[19]": {"conditions": "second compound 1 µM, first compound 0.0316 µM"}, "[20]": {"conditions": "second compound 1 µM, first compound 0.1 µM"}, "[21]": {"conditions": "second compound 1 µM, first compound 0.316 µM"}, "[22]": {"conditions": "second compound 1 µM, first compound 1 µM"}, "[23]": {"conditions": "second compound 1 µM, first compound 3.16 µM"}, "[24]": {"conditions": "second compound 1 µM, first compound 10 µM"}, "[25]": {"conditions": "second compound 3.16 µM, first compound 0.0316 µM"}, "[26]": {"conditions": "second compound 3.16 µM, first compound 0.1 µM"}, "[27]": {"conditions": "second compound 3.16 µM, first compound 0.316 µM"}, "[28]": {"conditions": "second compound 3.16 µM, first compound 1 µM"}, "[29]": {"conditions": "second compound 3.16 µM, first compound 3.16 µM"}, "[30]": {"conditions": "second compound 3.16 µM, first compound 10 µM"}, "[31]": {"conditions": "second compound 10 µM, first compound 0.0316 µM"}, "[32]": {"conditions": "second compound 10 µM, first compound 0.1 µM"}, "[33]": {"conditions": "second compound 10 µM, first compound 0.316 µM"}, "[34]": {"conditions": "second compound 10 µM, first compound 1 µM"}, "[35]": {"conditions": "second compound 10 µM, first compound 3.16 µM"}, "[36]": {"conditions": "second compound 10 µM, first compound 10 µM"}}, "data": [{"compound": "C=CC(=O)N1CCN(c2nc(=O)n(-c3c(C)ccnc3C(C)C)c3nc(-c4c(O)cccc4F)c(F)cc23)C(C)C1", "note": "(centres undefined) + CN(C)c1ccc(Nc2c3ccc(NC(=O)CCN4CCCC4)cc3nc3cc(NC(=O)CCN4CCCC4)ccc23)cc1;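 also: spheroids exposed to compounds for seven days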", "values": [{"measurement": "IC50", "setting": "second compound 0.0316 µM", "result": "> 10000", "unit": "nM"}, {"measurement": "IC50", "setting": "second compound 0.1 µM", "result": "> 10000", "unit": "nM"}, {"measurement": "IC50", "setting": "second compound 0.316 µM", "result": "> 10000", "unit": "nM"}, {"measurement": "IC50", "setting": "second compound 1 µM", "result": "> 10000", "unit": "nM"}, {"measurement": "IC50", "setting": "second compound 3.16 µM", "result": "> 10000", "unit": "nM"}, {"measurement": "IC50", "setting": "second compound 10 µM", "result": "> 10000", "unit": "nM"}, {"measurement": "viability, T/C", "setting": "[1]", "result": 95.5, "unit": "%"}, {"measurement": "viability, T/C", "setting": "[2]", "result": 93.2, "unit": "%"}, {"measurement": "viability, T/C", "setting": "[3]", "result": 107, "unit": "%"}, {"measurement": "viability, T/C", "setting": "[4]", "result": 104, "unit": "%"}, {"measurement": "viability, T/C", "setting": "[5]", "result": 99.6, "unit": "%"}, {"measurement": "viability, T/C", "setting": "[6]", "result": 93.3, "unit": "%"}, {"measurement": "viability, T/C", "setting": "[7]", "result": 100, "unit": "%"}, {"measurement": "viability, T/C", "setting": "[8]", "result": 102, "unit": "%"}, {"measurement": "viability, T/C", "setting": "[9]", "result": 112, "unit": "%"}, {"measurement": "viability, T/C", "setting": "[10]", "result": 121, "unit": "%"}, {"measurement": "viability, T/C", "setting": "[11]", "result": 123, "unit": "%"}, {"measurement": "viability, T/C", "setting": "[12]", "result": 87.8, "unit": "%"}, {"measurement": "viability, T/C", "setting": "[13]", "result": 100, "unit": "%"}, {"measurement": "viability, T/C", "setting": "[14]", "result": 101, "unit": "%"}, {"measurement": "viability, T/C", "setting": "[15]", "result": 105, "unit": "%"}, {"measurement": "viability, T/C", "setting": "[16]", "result": 96.6, "unit": "%"}, {"measurement": "viability, T/C", "setting": "[17]", "result": 128, "unit": "%"}, {"measurement": "viability, T/C", "setting": "[18]", "result": 98.6, "unit": "%"}, {"measurement": "viability, T/C", "setting": "[19]", "result": 101, "unit": "%"}, {"measurement": "viability, T/C", "setting": "[20]", "result": 129, "unit": "%"}, {"measurement": "viability, T/C", "setting": "[21]", "result": 113, "unit": "%"}, {"measurement": "viability, T/C", "setting": "[22]", "result": 115, "unit": "%"}, {"measurement": "viability, T/C", "setting": "[23]", "result": 147, "unit": "%"}, {"measurement": "viability, T/C", "setting": "[24]", "result": 85.7, "unit": "%"}, {"measurement": "viability, T/C", "setting": "[25]", "result": 101, "unit": "%"}, {"measurement": "viability, T/C", "setting": "[26]", "result": 100, "unit": "%"}, {"measurement": "viability, T/C", "setting": "[27]", "result": 100, "unit": "%"}, {"measurement": "viability, T/C", "setting": "[28]", "result": 93, "unit": "%"}, {"measurement": "viability, T/C", "setting": "[29]", "result": 110, "unit": "%"}, {"measurement": "viability, T/C", "setting": "[30]", "result": 79, "unit": "%"}, {"measurement": "viability, T/C", "setting": "[31]", "result": 81.6, "unit": "%"}, {"measurement": "viability, T/C", "setting": "[32]", "result": 99.7, "unit": "%"}, {"measurement": "viability, T/C", "setting": "[33]", "result": 82.3, "unit": "%"}, {"measurement": "viability, T/C", "setting": "[34]", "result": 109, "unit": "%"}, {"measurement": "viability, T/C", "setting": "[35]", "result": 89, "unit": "%"}, {"measurement": "viability, T/C", "setting": "[36]", "result": 62.2, "unit": "%"}]}, {"compound": "COc1cc(C2c3cc4c(cc3C(OC3OC5COC(C)OC5C(O)C3O)C3COC(=O)C23)OCO4)cc(OC)c1O", "note": "(centres undefined) + CN(C)c1ccc(Nc2c3ccc(NC(=O)CCN4CCCC4)cc3nc3cc(NC(=O)CCN4CCCC4)ccc23)cc1", "values": [{"measurement": "IC50", "setting": "second compound 0.0316 µM", "result": 958, "unit": "nM"}, {"measurement": "IC50", "setting": "second compound 0.1 µM", "result": 836, "unit": "nM"}, {"measurement": "IC50", "setting": "second compound 0.316 µM", "result": 762, "unit": "nM"}, {"measurement": "IC50", "setting": "second compound 1 µM", "result": 807, "unit": "nM"}, {"measurement": "IC50", "setting": "second compound 3.16 µM", "result": 665, "unit": "nM"}, {"measurement": "IC50", "setting": "second compound 10 µM", "result": 710, "unit": "nM"}, {"measurement": "viability, T/C", "setting": "[1]", "result": 105, "unit": "%"}, {"measurement": "viability, T/C", "setting": "[2]", "result": 87.1, "unit": "%"}, {"measurement": "viability, T/C", "setting": "[3]", "result": 79.1, "unit": "%"}, {"measurement": "viability, T/C", "setting": "[4]", "result": 46, "unit": "%"}, {"measurement": "viability, T/C", "setting": "[5]", "result": 36.7, "unit": "%"}, {"measurement": "viability, T/C", "setting": "[6]", "result": 37.5, "unit": "%"}, {"measurement": "viability, T/C", "setting": "[7]", "result": 92, "unit": "%"}, {"measurement": "viability, T/C", "setting": "[8]", "result": 99.7, "unit": "%"}, {"measurement": "viability, T/C", "setting": "[9]", "result": 76.8, "unit": "%"}, {"measurement": "viability, T/C", "setting": "[10]", "result": 46.3, "unit": "%"}, {"measurement": "viability, T/C", "setting": "[11]", "result": 40.2, "unit": "%"}, {"measurement": "viability, T/C", "setting": "[12]", "result": 41.4, "unit": "%"}, {"measurement": "viability, T/C", "setting": "[13]", "result": 94.9, "unit": "%"}, {"measurement": "viability, T/C", "setting": "[14]", "result": 91, "unit": "%"}, {"measurement": "viability, T/C", "setting": "[15]", "result": 76.1, "unit": "%"}, {"measurement": "viability, T/C", "setting": "[16]", "result": 40.9, "unit": "%"}, {"measurement": "viability, T/C", "setting": "[17]", "result": 45.3, "unit": "%"}, {"measurement": "viability, T/C", "setting": "[18]", "result": 39.5, "unit": "%"}, {"measurement": "viability, T/C", "setting": "[19]", "result": 93.2, "unit": "%"}, {"measurement": "viability, T/C", "setting": "[20]", "result": 95.3, "unit": "%"}, {"measurement": "viability, T/C", "setting": "[21]", "result": 81.2, "unit": "%"}, {"measurement": "viability, T/C", "setting": "[22]", "result": 42.9, "unit": "%"}, {"measurement": "viability, T/C", "setting": "[23]", "result": 43, "unit": "%"}, {"measurement": "viability, T/C", "setting": "[24]", "result": 38.5, "unit": "%"}, {"measurement": "viability, T/C", "setting": "[25]", "result": 93.8, "unit": "%"}, {"measurement": "viability, T/C", "setting": "[26]", "result": 104, "unit": "%"}, {"measurement": "viability, T/C", "setting": "[27]", "result": 67.7, "unit": "%"}, {"measurement": "viability, T/C", "setting": "[28]", "result": 46.8, "unit": "%"}, {"measurement": "viability, T/C", "setting": "[29]", "result": 36.9, "unit": "%"}, {"measurement": "viability, T/C", "setting": "[30]", "result": 37.2, "unit": "%"}, {"measurement": "viability, T/C", "setting": "[31]", "result": 94.3, "unit": "%"}, {"measurement": "viability, T/C", "setting": "[32]", "result": 105, "unit": "%"}, {"measurement": "viability, T/C", "setting": "[33]", "result": 60.9, "unit": "%"}, {"measurement": "viability, T/C", "setting": "[34]", "result": 59.1, "unit": "%"}, {"measurement": "viability, T/C", "setting": "[35]", "result": 30.8, "unit": "%"}, {"measurement": "viability, T/C", "setting": "[36]", "result": 46.3, "unit": "%"}]}]}
